Columns and labels:
[1] = Cytotoxicity against human MT4 cells assessed as cell viability after 5 days by MTT assay; type: cell-based
[2] = Selectivity index, ratio of CC50 for human MT4 cells to EC50 for reverse transcriptase F227L/V106A double mutant in human MT4 cells infected HIV1 3B
[3] = Selectivity index, ratio of CC50 for human MT4 cells to EC50 for HIV1 RES056 reverse transcriptase K103N/Y181C double mutant infected in human MT4 cells
[4] = Selectivity index, ratio of CC50 for human MT4 cells to EC50 for reverse transcriptase Y188L mutant in human MT4 cells infected HIV1 3B
[5] = Selectivity index, ratio of CC50 for human MT4 cells to EC50 for reverse transcriptase K103N mutant in human MT4 cells infected HIV1 3B
[6] = tested on: Human immunodeficiency virus 2; assay: Antiviral activity against HIV2 ROD harboring reverse transcriptase infected in human MT4 cells assessed as protection against virus induced cytotoxicity after 5 days by MTT assay; type: functional, cell-based; conditions: Human immunodeficiency virus 2, ISOLATE ROD, MT4, 120 h
[7] = Selectivity index, ratio of CC50 for human MT4 cells to EC50 for wild type HIV1 3B harboring reverse transcriptase infected in human MT4 cells
[8] = Selectivity index, ratio of CC50 for human MT4 cells to EC50 for reverse transcriptase Y181C mutant in human MT4 cells infected HIV1 3B
[9] = Selectivity index, ratio of CC50 for human MT4 cells to EC50 for reverse transcriptase E138K mutant in human MT4 cells infected HIV1 3B
[10] = Selectivity index, ratio of CC50 for human MT4 cells to EC50 for reverse transcriptase L100I mutant in human MT4 cells infected HIV1 3B
[11] = tested on: Human immunodeficiency virus 1; assay: Antiviral activity against wild type HIV1 3B harboring reverse transcriptase infected in human MT4 cells assessed as protection against virus induced cytotoxicity after 5 days by MTT assay; type: functional, cell-based; conditions: Human immunodeficiency virus 1, 3B, MT4, 120 h

Structure (SMILES) | CC50 at 120 h [1] [nM] | selectivity ratio ([2]; MT4 cells) | selectivity ratio ([3]; MT4 cells) | selectivity ratio ([4]; MT4 cells) | selectivity ratio ([5]; MT4 cells) | EC50 [6] [nM] | selectivity ratio ([7]; MT4 cells) | selectivity ratio ([8]; MT4 cells) | selectivity ratio ([9]; MT4 cells) | selectivity ratio ([10]; MT4 cells) | EC50 [11] [nM] | selectivity ratio [2] | selectivity ratio [3] | selectivity ratio [4] | selectivity ratio [5] | selectivity ratio [7] | selectivity ratio [8] | selectivity ratio [9] | selectivity ratio [10]
Cc1cc(/C=C/C#N)cc(C)c1Oc1nc(NC2CCN(Cc3ccc([N+](=O)[O-])cc3)CC2)nc2ccsc12 | 3520 | 33 | 32 | 30 | 365 | > 3520 | 456 | 115 | 86 | 134 | 7.73 |  |  |  |  |  |  |  | 
Cc1cc(C#N)cc(C)c1Oc1nc(NC2CCN(Cc3ccc(S(N)(=O)=O)cc3)CC2C(=O)O)nc2ccsc12 (stereo unspecified) | 27600 | 11 | < 1 | 9 | 33 | > 27600 | 38 | 8 | 8 | 17 | 723 |  |  |  |  |  |  |  | 
Cc1cc(/C=C/C#N)cc(C)c1Oc1nc(NC2CCN(Cc3ccc(C#N)cc3)CC2)nc2ccsc12 | 2670 | 118 | 45 | 81 | 494 | > 2680 | 509 | 86 | 91 | 364 | 5.26 |  |  |  |  |  |  |  | 
Cc1ccnc2c1NC(=O)c1cccnc1N2C1CC1 [NEVIRAPINE] | > 15000 |  |  |  |  |  |  |  |  |  |  |  |  |  |  |  |  |  | 
Cc1ccccc1CN1CCC(Nc2nc(Oc3c(C)cc(/C=C/C#N)cc3C)c3sccc3n2)CC1 | 2830 | 46 | 3 | 16 | 114 | > 2830 | 180 | 33 | 22 | 60 | 15.7 |  |  |  |  |  |  |  | 
Cc1cc(/C=C/C#N)cc(C)c1Oc1nc(NC2CCN(Cc3ccccc3Cl)CC2)nc2ccsc12 | 4930 | 68 | 30 | 24 | 169 | > 4930 | 179 | 37 | 31 | 162 | 27.4 |  |  |  |  |  |  |  | 
Cc1cc(/C=C/C#N)cc(C)c1Oc1nc(NC2CCN(Cc3ccccc3Br)CC2)nc2ccsc12 | 5610 | 63 | 16 | 37 | 124 | > 5610 | 140 | 45 | 39 | 117 | 40.2 |  |  |  |  |  |  |  | 
Cc1cc(C#N)cc(C)c1Oc1nc(NC2CCCN(Cc3ccc(C(N)=O)cc3)C2)nc2ccsc12 (stereo unspecified) | 19500 |  |  |  |  |  |  |  |  |  | 3220 |  |  |  |  |  |  |  | 
Cc1cc(C#N)cc(C)c1Oc1nc(NC2CCC(NCc3cccc(C(N)=O)c3)CC2)nc2ccsc12 (stereo unspecified) | 9210 |  |  |  |  |  |  |  |  |  | 135 |  |  |  |  |  |  |  | 
Cc1cn([C@H]2C[C@H](N=[N+]=[N-])[C@@H](CO)O2)c(=O)[nH]c1=O [ZIDOVUDINE] | > 7480 |  |  |  |  |  |  |  |  |  | 5.81 | > 1560 | > 675 | > 1180 | > 1430 | 625 | > 1120 | > 1030 | > 1990
Cc1cc(C#N)cc(C)c1Oc1nc(NC2CCC(NCc3ccc(O)cc3)CC2)nc2ccsc12 (stereo unspecified) | 20100 | < 1 | < 1 | < 1 | 4 | > 20100 | 15 | < 1 | 5 | < 1 | 1310 |  |  |  |  |  |  |  | 
Cc1cc(C#N)cc(C)c1Oc1nc(NC2CCC(NCc3ccc(C(N)=O)cc3)CC2)nc2ccsc12 (stereo unspecified) | 7720 |  |  |  |  |  |  |  |  |  | 121 |  |  |  |  |  |  |  | 
Cc1cc(/C=C/C#N)cc(C)c1Oc1nc(NC2CCN(Cc3cccc(C(N)=O)c3)CC2)nc2ccsc12 | 3530 | 448 | 81 | 129 | 1190 | > 3530 | 1080 | 563 | 551 | 689 | 3.26 |  |  |  |  |  |  |  | 
Cc1cc(/C=C/C#N)cc(C)c1Oc1nc(NC2CCN(Cc3cccc(Cl)c3)CC2)nc2ccsc12 | 4880 | 72 | 33 | 29 | 164 | > 4880 | 188 | 69 | 37 | 163 | 25.9 |  |  |  |  |  |  |  | 
CCOC(=O)c1ccc(CN2CCC(Nc3nc(Oc4c(C)cc(C#N)cc4C)c4ccsc4n3)CC2)cc1 | > 230000 | > 63 | > 6 | > 124 | > 625 | > 230000 | > 2330 | > 207 | > 463 | > 160 | 98.9 |  |  |  |  |  |  |  | 
Cc1cc(/C=C/C#N)cc(C)c1Oc1nc(NC2CCN(Cc3ccccc3C#N)CC2)nc2ccsc12 | 2280 | 60 | 7 | 18 | 130 | > 2280 | 236 | 66 | 53 | 151 | 9.66 |  |  |  |  |  |  |  | 
Cc1cc(C#N)cc(C)c1Oc1nc(NC2CCC(NCc3ccc(Br)cc3)CC2)nc2ccsc12 (stereo unspecified) | 3450 | < 1 | < 1 | < 1 | ≤ 5 | > 3450 | 10 | < 1 | 4 | ≤ 2 | 339 |  |  |  |  |  |  |  | 
Cc1cc(C#N)cc(C)c1Oc1nc(NC2CCN(Cc3ccc(C(N)=O)cc3)CC2)nc2sccc12 | 4930 | < 1 | 3 | < 1 | 11 | > 4930 | 32 | 20 | 6 | 9 | 152 |  |  |  |  |  |  |  | 
CCOC(=O)c1ccc(CN2CCC(Nc3nc(Oc4c(C)cc(/C=C/C#N)cc4C)c4sccc4n3)CC2)cc1 | ≥ 3610 | ≥ 42 | ≥ 22 | ≥ 22 | ≥ 273 | > 3610 | ≥ 247 | ≥ 110 | ≥ 96 | ≥ 134 | 14.6 |  |  |  |  |  |  |  | 
Cc1ccc(CN2CCC(Nc3nc(Oc4c(C)cc(/C=C/C#N)cc4C)c4sccc4n3)CC2)cc1 | 2910 | 22 | 20 | 21 | 258 | > 2910 | 326 | 98 | 90 | 91 | 8.91 |  |  |  |  |  |  |  | 
Cc1cc(/C=C/C#N)cc(C)c1Oc1nc(NC2CCN(Cc3ccc(C(N)=O)cc3)CC2)nc2ccsc12 | ≥ 3150 |  |  |  |  |  |  |  |  |  | 1.26 |  |  |  |  |  |  |  | 
Cc1cc(/C=C/C#N)cc(C)c1Oc1nc(NC2CCN(Cc3ccc(Cl)cc3)CC2)nc2ccsc12 | 3980 | 37 | 20 | 22 | 159 | > 3980 | 156 | 51 | 26 | 93 | 25.6 |  |  |  |  |  |  |  | 
O=C1Nc2ccc(Cl)cc2[C@@](C#CC2CC2)(C(F)(F)F)O1 [EFAVIRENZ] | > 6330 |  |  |  |  |  |  |  |  |  |  |  |  |  |  |  |  |  | 
COC(=O)c1ccc(CN2CCC(Nc3nc(Oc4c(C)cc(C#N)cc4C)c4ccsc4n3)CC2)cc1 | 28600 | 109 | 19 | 181 | 982 | > 28600 | 5450 | 316 | 805 | 214 | 5.26 |  |  |  |  |  |  |  | 
Cc1cc(C#N)cc(C)c1Oc1nc(NC2CCC(NCc3cccc(C(F)(F)F)c3)CC2)nc2ccsc12 (stereo unspecified) | 707 | < 1 | < 1 | < 1 | < 1 | > 707 | 4 | < 1 | < 1 | < 1 | 174 |  |  |  |  |  |  |  | 
Cc1cc(C#N)cc(C)c1Oc1nc(NC2CCC(NCc3ccc(F)cc3)CC2)nc2ccsc12 (stereo unspecified) | 2760 | < 1 | < 1 | < 1 | 3 | > 2760 | 5 | < 1 | ≤ 2 | 3 | 553 |  |  |  |  |  |  |  | 
Cc1cc(C#N)cc(C)c1Oc1nc(NC2CCCN(Cc3ccc(S(N)(=O)=O)cc3)C2)nc2ccsc12 (stereo unspecified) | 1170 |  |  |  |  |  |  |  |  |  | > 1170 |  |  |  |  |  |  |  | 

Source: ChEMBL document CHEMBL4049458, “Structure-Based Optimization of Thiophene[3,2-d]pyrimidine Derivatives as Potent HIV-1 Non-nucleoside Reverse Transcriptase Inhibitors with Improved Potency against Resistance-Associated Variants” (J Med Chem, 2017)
